The results in this text go back to paper PMC6792352, “Limited Chemical Structural Diversity Found to Modulate Thyroid Hormone Receptor in the Tox21 Chemical Library” (Environmental Health Perspectives, 2019).

The test system of one data set is GH3-TRE-Luc cell line. Conditions: read-out: AC50 (uM) modified / 1000, viability, 1 nM T3 present, 24 h.
The nature of a further data set: in vitro. The note with it: rat, gh3-tre-luc cells, AC50 (uM) modified / 1000.

SMILES strings stand for the structures. Where a name gives a salt, the structure may show the parent alone. Read-outs that look alike come from different tables or passages of the source.

Regarding `Cc1ccc(/N=C/N(C)/C=N/c2ccc(C)cc2C)c(C)c1` [Amitraz], the CC50 in the data set with GH3-TRE-Luc cell line (Tox21_110001=Tox21_300930) amounted to 62.8 µM. Moreover, the CC50 at 24 h in “in vitro” was determined as 59 µM.
For `CC(C)=CC1C(C(=O)OCc2coc(Cc3ccccc3)c2)C1(C)C` (stereo not shown) [Resmethrin], the CC50 in the data set with GH3-TRE-Luc cell line (Tox21_110001=Tox21_300920) worked out at 55.3 µM. Further, in the data set “in vitro”, the CC50 at 24 h was > 90 µM.
For the molecule `CC1(C)C(C(=O)OC(C#N)c2cccc(Oc3ccccc3)c2)C1(C)C` (stereo not shown) [Fenpropathrin], the CC50 in the data set with GH3-TRE-Luc cell line (Tox21_110001=Tox21_300882) was 80.7 µM. The CC50 at 24 h in “in vitro” is > 90 µM.
As for `Nc1cc([N+](=O)[O-])ccc1O` [2-Amino-4-nitrophenol], in the data set on GH3-TRE-Luc cell line (Tox21_110001=Tox21_302788), the CC50 turned out to be 48.2 µM. The CC50 at 24 h in “in vitro” came to 62.3 µM.
`CCCCC/C=C\C/C=C\CCCCCCCC(=O)O` [Linoleic acid]: in the data set on GH3-TRE-Luc cell line (Tox21_110001=Tox21_303080), the CC50 is 58.3 µM. The CC50 at 24 h in “in vitro” is > 90 µM.
For `CC(C)[C@@]1(NC(=O)[C@@H]2C[C@@H]3c4cccc5[nH]cc(c45)C[C@H]3N(C)C2)O[C@@]2(O)[C@@H]3CCCN3C(=O)[C@H](Cc3ccccc3)N2C1=O` [Dihydroergocristine], the CC50 with GH3-TRE-Luc cell line (Tox21_110001=Tox21_113115) came out at 21.9 µM. Moreover, the CC50 at 24 h in “in vitro” was found to be 21 µM.
As for `Oc1ccccc1O` [Catechol], the CC50 with GH3-TRE-Luc cell line (Tox21_110001=Tox21_300153) worked out at 32.6 µM. Moreover, in “in vitro”, the CC50 at 24 h came out at 33.7 µM.
For `CC(C)(C)CC(C)(C)c1ccc(O)cc1` [4-(1,1,3,3-Tetramethylbutyl)phenol], the CC50 in the data set on GH3-TRE-Luc cell line (Tox21_110001=Tox21_112084) was found to be 22.4 µM. Besides, in “in vitro”, the CC50 at 24 h amounted to 35.1 µM.
On to `Cc1ccc(O)c(C(C)(C)C)c1` [2-tert-Butyl-4-methylphenol], for which the CC50 with GH3-TRE-Luc cell line (Tox21_110001=Tox21_303003) was 69.9 µM. The CC50 at 24 h in “in vitro” worked out at 89.6 µM.
With `Clc1ccc(C(c2ccccc2Cl)C(Cl)(Cl)Cl)cc1` (stereo not shown) [o,p'-DDT], in the data set with GH3-TRE-Luc cell line (Tox21_110001=Tox21_300622), the CC50 was 39.9 µM. In “in vitro”, the CC50 at 24 h was determined as 34 µM.
As to `CC(C)(c1cc(Br)c(O)c(Br)c1)c1cc(Br)c(O)c(Br)c1` [3,3',5,5'-Tetrabromobisphenol A], the figures for the CC50 in the data set on GH3-TRE-Luc cell line (Tox21_110001=Tox21_201981) and in the data set on GH3-TRE-Luc cell line (Tox21_110001=Tox21_300561) were 43.3 µM and 38.6 µM, respectively. This molecule had a CC50 at 24 h in “in vitro” of 39.3 µM.
In the case of `C=CC(=O)OCCCCCCOC(=O)C=C` [1,6-Hexanediol diacrylate], in the data set with GH3-TRE-Luc cell line (Tox21_110001=Tox21_303168), the CC50 turned out to be 46.1 µM. Also, the CC50 at 24 h in the data set “in vitro” is 57.6 µM.
With `O=Cc1ccccc1C=O` [1,2-Benzenedicarboxaldehyde], the CC50 with GH3-TRE-Luc cell line (Tox21_110001=Tox21_112347) came out at 8.06 µM. In addition, the CC50 at 24 h in “in vitro” is 4.89 µM.
With `ClC(Cl)=C(c1ccc(Cl)cc1)c1ccc(Cl)cc1` [p,p'-DDE], in the data set with GH3-TRE-Luc cell line (Tox21_110001=Tox21_300109), the CC50 was found to be 63.5 µM. Further, the CC50 at 24 h in the data set “in vitro” was determined as 48.6 µM.
Turning to `CC/C(=C(/CC)c1ccc(O)cc1)c1ccc(O)cc1` [Diethylstilbestrol], the CC50 in the data set with GH3-TRE-Luc cell line (Tox21_110001=Tox21_300526) was determined as 28.7 µM. In the data set “in vitro”, this molecule yielded a CC50 at 24 h of 55.5 µM.
For `CCC(CC)Nc1c([N+](=O)[O-])cc(C)c(C)c1[N+](=O)[O-]` [Pendimethalin], in the data set on GH3-TRE-Luc cell line (Tox21_110001=Tox21_300867), the CC50 is > 90 µM. The CC50 at 24 h in “in vitro” turned out to be 76.7 µM.
Take `CCN(CC)CCSC(=O)C(c1ccccc1)c1ccccc1` [Thiphenamil]: the CC50 in the data set on GH3-TRE-Luc cell line (Tox21_110001=Tox21_111676) was 30.2 µM. This molecule also had a CC50 at 24 h in the data set “in vitro” of 41 µM.
Turning to `CCCN(CCC)c1c([N+](=O)[O-])cc(C(F)(F)F)cc1[N+](=O)[O-]` [Trifluralin], the CC50 in the data set with GH3-TRE-Luc cell line (Tox21_110001=Tox21_300918) came to 62.5 µM. In the data set “in vitro”, the CC50 at 24 h was > 90 µM.
Regarding `Oc1c(Cl)c(Cl)c(Cl)c(Cl)c1Cl` [Pentachlorophenol], the CC50 in the data set on GH3-TRE-Luc cell line (Tox21_110001=Tox21_300023) was 29.7 µM. For the same molecule, the CC50 at 24 h in “in vitro” is 34.5 µM.
Regarding `CO[C@H]1/C=C/O[C@@]2(C)Oc3c(C)c(O)c4c(O)c(c(/C=N/N5CCN(C)CC5)c(O)c4c3C2=O)NC(=O)/C(C)=C\C=C\[C@H](C)[C@H](O)[C@@H](C)[C@@H](O)[C@@H](C)[C@H](OC(C)=O)[C@@H]1C` [Rifampicin], the CC50 came out at 24.2 µM in the data set with GH3-TRE-Luc cell line (Tox21_110001=Tox21_111329) and 32.4 µM in the data set with GH3-TRE-Luc cell line (Tox21_110001=Tox21_300550). The same molecule yielded a CC50 at 24 h in the data set “in vitro” of 29.8 µM.
`CCCCCC(=O)O[C@]1(C(C)=O)CC[C@H]2[C@@H]3CCC4=CC(=O)CC[C@]4(C)[C@H]3CC[C@@]21C` [Hydroxyprogesterone caproate]: the CC50 in the data set on GH3-TRE-Luc cell line (Tox21_110001=Tox21_302333) was 26.2 µM. This molecule had a CC50 at 24 h in “in vitro” of 17.9 µM.
On to `CC(C)(C)c1cc(C(C)(C)C)c(O)c(C(C)(C)C)c1` [2,4,6-Tris(tert-butyl)phenol], for which the CC50 in the data set with GH3-TRE-Luc cell line (Tox21_110001=Tox21_300121) is 28.2 µM. For the same molecule, the CC50 at 24 h in the data set “in vitro” is 27.4 µM.
Turning to `Nc1ccc(O)c(N)c1` [2,4-Diaminophenol dihydrochloride], the CC50 with GH3-TRE-Luc cell line (Tox21_110001=Tox21_303017) was determined as 45.5 µM. Further, in the data set “in vitro”, the CC50 at 24 h worked out at 41.5 µM.
With `CC(=O)Oc1ccccc1C(=O)Nc1ncc([N+](=O)[O-])s1` [Nitazoxanide], the CC50 in the data set on GH3-TRE-Luc cell line (Tox21_110001=Tox21_111018) was determined as 27.7 µM. Also, in the data set “in vitro”, the CC50 at 24 h turned out to be 23.7 µM.
For the molecule `C=CC(=O)OCC(CO)(COC(=O)C=C)COC(=O)C=C` [Pentaerythritol triacrylate], in the data set on GH3-TRE-Luc cell line (Tox21_110001=Tox21_303252), the CC50 was determined as 2.61 µM. In addition, the CC50 at 24 h in “in vitro” was 1.77 µM.
Turning to `Oc1ccc(C(c2ccc(O)cc2)(C(F)(F)F)C(F)(F)F)cc1` [Bisphenol AF], the CC50 in the data set with GH3-TRE-Luc cell line (Tox21_110001=Tox21_303641) came out at 54.4 µM. For the same molecule, in “in vitro”, the CC50 at 24 h came to 32.9 µM.
`CC1COc2ccccc2N1C(=O)C(Cl)Cl` (stereo not shown) [Benoxacor]: in the data set on GH3-TRE-Luc cell line (Tox21_110001=Tox21_303359), the CC50 is 22.1 µM. This molecule also showed a CC50 at 24 h in the data set “in vitro” of 11.9 µM.
On to `CCc1cc(Cl)c(OC)c(C(=O)NC[C@@H]2CCCN2CC)c1O` [Eticlopride hydrochloride], for which the results for the CC50 in the data set on GH3-TRE-Luc cell line (Tox21_110001=Tox21_111229) and in the data set on GH3-TRE-Luc cell line (Tox21_110001=Tox21_113585) were 25.3 µM and 33.6 µM, respectively. Further, the CC50 at 24 h in “in vitro” was 19.6 µM.
In the case of `CCc1cc(C(C)(C)C)c(O)c(C(C)(C)C)c1` [2,6-Di-tert-butyl-4-ethylphenol], the CC50 in the data set with GH3-TRE-Luc cell line (Tox21_110001=Tox21_303397) stood at 85.5 µM. In “in vitro”, this molecule gave a CC50 at 24 h of 72.5 µM.
In the case of `Cc1ccc(/C=C2/C(=O)C3(C)CCC2C3(C)C)cc1` (stereo not shown) [Enzacamene], in the data set with GH3-TRE-Luc cell line (Tox21_110001=Tox21_112423), the CC50 was 46.5 µM. Besides, in the data set “in vitro”, the CC50 at 24 h was > 90 µM.
For `CNCCCC12CCC(c3ccccc31)c1ccccc12` [Maprotiline], in the data set with GH3-TRE-Luc cell line (Tox21_110001=Tox21_110200), the CC50 came out at 11.7 µM. In “in vitro”, this molecule registered a CC50 at 24 h of 6.11 µM.
On to `O=Nc1ccc(Nc2ccccc2)cc1` [4-Nitrosodiphenylamine], for which the CC50 with GH3-TRE-Luc cell line (Tox21_110001=Tox21_302822) was determined as 14.9 µM. In “in vitro”, this molecule showed a CC50 at 24 h of 8.75 µM.
Turning to `Oc1ccc2ccccc2c1N=Nc1ccccc1` [C.I. Solvent Yellow 14], the CC50 in the data set on GH3-TRE-Luc cell line (Tox21_110001=Tox21_300297) stood at 62.3 µM. Besides, the CC50 at 24 h in the data set “in vitro” was > 90 µM.
On to `CC(C)(C)C(=O)C1C(=O)c2ccccc2C1=O` [Pindone], for which the CC50 in the data set on GH3-TRE-Luc cell line (Tox21_110001=Tox21_303317) is 71.8 µM. For the same molecule, the CC50 at 24 h in “in vitro” was determined as 60.9 µM.
As for `CCCCCCCCCc1ccc(O)cc1` [4-Nonylphenol], the CC50 in the data set with GH3-TRE-Luc cell line (Tox21_110001=Tox21_303647) was 42.8 µM. For the same molecule, the CC50 at 24 h in “in vitro” is 41.5 µM.
